One data set has as its system PDE4. As to the kind of experiment: Evaluation of PDE4 inhibitory activity, scintillation proximity assay. It counts as biochemical. Conditions: scintillation proximity assay. The essentials:
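SPA with [2,8-3H]-cAMP and diluted PDE4 enzyme preparation in 50 mM Tris-HCl pH 7.4, 8.3 mM MgCl2, 1.7 mM EGTA, 3 mg/mL BSA, 120 min at room temperature. Product captured on ZnSO4-containing YSi-SPA beads, scintillation counted; IC50 from inhibition curves vs DMSO control and no-enzyme blank.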

Data set [1] can be described thus: Hepatic metabolic stability (rat liver microsome method). It counts as in vitro ADME. Particulars: rat liver microsomes 0.5 mg/mL, test substance 1 μM, NADPH 1 mM, 37° C., 30 minutes. On the procedure:
Metabolic stability in rat liver microsomes was evaluated by the following method. First, in 100 mM of potassium phosphate buffer solution (pH 7.4), liver microsomes (concentration at reaction: 0.5 mg/mL) and the test substance (concentration at reaction: 1 μM) were preincubated at 37° C. Five minutes later, 100 mM of potassium phosphate buffer (pH 7.4) solution of NADPH (concentration at reaction: 1 mM) was mixed thereto to start the reaction. After a predetermined time passed, acetonitrile was mixed to the reaction mixture to stop the reaction. Here, the reaction time was 0 and 30 minutes, and drug concentration measurement was performed for each time period using LC-MS. The % remaining value of the test compound was calculated from the value for 0 minutes and the value for 30 minutes, using the calculation formula below: % Remaining=(Value for 30 Minutes/Value for 0 Minutes)×100
The results of measuring the rat liver microsome metabolic Stability (% remaining for 30-minute reaction) for the test compound by the above method were evaluated in accordance with the following evaluated basis; A: a % remaining rate of 75% or more, B: 60% or more and less than 75%, C: 45% or more and less than 60%, and D: less than 45%.

Setting [2] is: class symbols of Evaluation 1, read-out: PDE4 Inhibitory Activity (concentration for the inhibition rate of 50%, IC50), Evaluation 1.
Where [3] appears, read: read-out: PDE4 Inhibitory Activity (Evaluation 1; concentration for the inhibition rate of 50%).

Where two headings read alike, the source gives them in different places.

For the compound `FC(F)(F)Oc1c(Cl)cc(-n2cccn2)c2oc(N3CC4CCC(C3)N4)nc12` [Example 5, 2-(3,8-Diazabicyclo[3.2.1]octan-3-yl)-5-chloro-7-(1H-pyrazol-1-yl)-4-(trifluoromethoxy)benzo[d]oxazole], in the data set on PDE4 (setting [2]), the IC50 is below 100 nM. Besides, the “Residual ratio (% remaining for 30-minute reaction)” value in data set [1] was “B (B: 60% or more and less than 75%)”.

For `FC(F)(F)Oc1c(Cl)cc(-c2cscn2)c2oc(N3CC4CCC(C3)N4)nc12` [Example 8, 2-(3,8-Diazabicyclo[3.2.1]octan-3-yl)-5-chloro-7-(thiazol-4-yl)-4-(trifluoromethoxy)benzo[d]oxazole], in the data set with PDE4 (setting [2]), the IC50 was below 100 nM. For the same compound, the “Residual ratio (% remaining for 30-minute reaction)” value in data set [1] is “A (A: a % remaining rate of 75% or more)”.

Regarding `Fc1ccc(-c2cc(Cl)c(OC(F)(F)F)c3nc(N4CC5CCC(C4)N5)oc23)nc1` [Example 10, 2-(3,8-Diazabicyclo[3.2.1]octan-3-yl)-5-chloro-7-(5-fluoropyridin-2-yl)-4-(trifluoromethoxy)benzo[d]oxazole], the IC50 with PDE4 (setting [2]) was below 100 nM. The “Residual ratio (% remaining for 30-minute reaction)” value in data set [1] is recorded as “A (A: a % remaining rate of 75% or more)”.

`FC(F)(F)c1c(Cl)cc(-c2ccccn2)c2oc(N3CC4CCCC(C3)N4)nc12` [Example 12, 2-(3,9-Diazabicyclo[3.3.1]nonan-3-yl)-5-chloro-7-(pyridin-2-yl)-4-(trifluoromethyl)benzo[d]oxazole]: the IC50 in the data set with PDE4 (setting [2]) was below 100 nM. In addition, the “Residual ratio (% remaining for 30-minute reaction)” value in data set [1] is “B (B: 60% or more and less than 75%)”.

Turning to `FC(F)(F)c1c(Cl)cc(-n2cccn2)c2oc(N3CC4CC(C3)N4)nc12` [Example 17, 2-(3,6-Diazabicyclo[3.1.1]heptan-3-yl)-5-chloro-7-(1H-pyrazol-1-yl)-4-(trifluoromethyl)benzo[d]oxazole], the IC50 with PDE4 (setting [2]) was below 100 nM. In addition, the “Residual ratio (% remaining for 30-minute reaction)” value in data set [1] was “B (B: 60% or more and less than 75%)”.

On to `OC(c1cc(-c2nccs2)c2oc(N3CC4CCC(C3)N4)nc2c1)C(F)F` (stereo not drawn) [Example 104, 1-(2-(3,8-Diazabicyclo[3.2.1]octan-3-yl)-7-(thiazol-2-yl)benzo[d]oxazol-5-yl)-2,2-difluoroethan-1-ol], for which the IC50 in the data set with PDE4 (setting [2]) is below 100 nM. Moreover, in data set [1], the “Residual ratio (% remaining for 30-minute reaction)” value is “B (B: 60% or more and less than 75%)”.

Turning to `FC(F)(F)C(OCc1nnn[nH]1)c1ccc(-c2nccs2)c2oc(N3CC4CCC(C3)N4)nc12` (stereo not drawn) [Example 230, 4-(1-((1H-tetrazol-5-yl)methoxy)-2,2,2-trifluoroethyl)-2-(3,8-diazabicyclo[3.2.1]octan-3-yl)-7-(thiazol-2-yl)benzo[d]oxazole], the IC50 in the data set on PDE4 (setting [3]) was below 100 nM. Further, the “Residual ratio (% remaining for 30-minute reaction)” value in data set [1] is “A (A: a % remaining rate of 75% or more)”.

As for `FC(F)(F)C(OCc1nnn[nH]1)c1ccc(-c2nccs2)c2oc(N3CC4CC(C3)N4)nc12` (stereo not drawn) [Example 231, 4-(1-((1H-tetrazol-5-yl)methoxy)-2,2,2-trifluoroethyl)-2-(3,6-diazabicyclo[3.1.1]heptan-3-yl)-7-(thiazol-2-yl)benzo[d]oxazole], in the data set on PDE4 (setting [3]), the IC50 is below 100 nM. In addition, the “Residual ratio (% remaining for 30-minute reaction)” value in data set [1] is reported as “A (A: a % remaining rate of 75% or more)”.

Take `c1csc(-c2ccc(OC3CCOCC3)c3nc(N4CC5CCC(C4)N5)oc23)n1` [Example 254, 2-(3,8-Diazabicyclo[3.2.1]octan-3-yl)-4-((tetrahydro-2H-pyran-4-yl)oxy)-7-(thiazol-2-yl)benzo[d]oxazole]: the IC50 in the data set with PDE4 (setting [3]) is below 100 nM. In addition, in data set [1], the “Residual ratio (% remaining for 30-minute reaction)” value was “A (A: a % remaining rate of 75% or more)”.

Consider `C[C@@H](O)COc1ccc(-c2nccs2)c2oc(N3CC4CC(C3)N4)nc12` [Example 259, (2R)-1-((2-(3,6-diazabicyclo[3.1.1]heptan-3-yl)-7-(thiazol-2-yl)benzo[d]oxazol-4-yl)oxy)propan-2-ol], for which, in the data set on PDE4 (setting [3]), the IC50 was below 100 nM. Moreover, in data set [1], the “Residual ratio (% remaining for 30-minute reaction)” value was “A (A: a % remaining rate of 75% or more)”.

With `OC1CC(Oc2ccc(-c3nccs3)c3oc(N4CC5CC(C4)N5)nc23)C1` (stereo not drawn) [Example 285, 3-((2-(3,6-Diazabicyclo[3.1.1]heptan-3-yl)-7-(thiazol-2-yl)benzo[d]oxazol-4-yl)oxy)cyclobutan-1-ol], the IC50 with PDE4 (setting [3]) was below 100 nM. Moreover, the “Residual ratio (% remaining for 30-minute reaction)” value in data set [1] is listed as “A (A: a % remaining rate of 75% or more)”.

Take `c1csc(-c2ccc(OC3CCOCC3)c3nc(N4CC5CC(C4)N5)oc23)n1` [Example 294, 2-(3,6-Diazabicyclo[3.1.1]heptan-3-yl)-4-((tetrahydro-2H-pyran-4-yl)oxy)-7-(thiazol-2-yl)benzo[d]oxazole]: the IC50 in the data set with PDE4 (setting [3]) is below 100 nM. In addition, in data set [1], the “Residual ratio (% remaining for 30-minute reaction)” value is listed as “A (A: a % remaining rate of 75% or more)”.

Consider `CC(C)(O)C(F)(F)Oc1ccc(-n2cccn2)c2oc(N3CC4CC(C3)N4)nc12` [Example 304, 1-((2-(3,6-Diazabicyclo[3.1.1]heptan-3-yl)-7-(1H-pyrazol-1-yl)benzo[d]oxazol-4-yl)oxy)-1,1-difluoro-2-methylpropan-2-ol], for which, in the data set on PDE4 (setting [3]), the IC50 is below 100 nM. Besides, in data set [1], the “Residual ratio (% remaining for 30-minute reaction)” value is reported as “A (A: a % remaining rate of 75% or more)”.

In the case of `Cc1csc(-c2ccc(OC(F)(F)C(C)(C)O)c3nc(N4CC5CC(C4)N5)oc23)n1` [Example 306, 1-((2-(3,6-Diazabicyclo[3.1.1]heptan-3-yl)-7-(4-methylthiazol-2-yl)benzo[d]oxazol-4-yl)oxy)-1,1-difluoro-2-methylpropan-2-ol], in the data set on PDE4 (setting [3]), the IC50 lay within 100 to 1000 nM. Moreover, in data set [1], the “Residual ratio (% remaining for 30-minute reaction)” value was “A (A: a % remaining rate of 75% or more)”.

Take `OCC(F)(F)Oc1ccc(-c2ccccn2)c2oc(N3CC4CC(C3)N4)nc12` [Example 315, 2-((2-(3,6-Diazabicyclo[3.1.1]heptan-3-yl)-7-(pyridin-2-yl)benzo[d]oxazol-4-yl)oxy)-2,2-difluoroethan-1-ol]: the IC50 with PDE4 (setting [3]) was below 100 nM. The “Residual ratio (% remaining for 30-minute reaction)” value in data set [1] is listed as “A (A: a % remaining rate of 75% or more)”.

Regarding `CC(C)(O)C(F)(F)Oc1ccc(-n2cccn2)c2oc(N3CC4CCC(C3)N4)nc12` [Example 316, 1-((2-(3,8-Diazabicyclo[3.2.1]octan-3-yl)-7-(1H-pyrazol-1-yl)benzo[d]oxazol-4-yl)oxy)-1,1-difluoro-2-methylpropan-2-ol], in the data set with PDE4 (setting [3]), the IC50 was below 100 nM. The “Residual ratio (% remaining for 30-minute reaction)” value in data set [1] is reported as “A (A: a % remaining rate of 75% or more)”.

As to `CC(C)(O)C(F)(F)Oc1ccc(-c2ccccn2)c2oc(N3CC4CCC(C3)N4)nc12` [Example 317, 1-((2-(3,8-Diazabicyclo[3.2.1]octan-3-yl)-7-(pyridin-2-yl)benzo[d]oxazol-4-yl)oxy)-1,1-difluoro-2-methylpropan-2-ol], the IC50 in the data set on PDE4 (setting [3]) was below 100 nM. In addition, the “Residual ratio (% remaining for 30-minute reaction)” value in data set [1] is on record as “A (A: a % remaining rate of 75% or more)”.

`Cc1csc(-c2ccc(OC(F)(F)C(C)(C)O)c3nc(N4CC5CCC(C4)N5)oc23)n1` [Example 318, 1-((2-(3,8-Diazabicyclo[3.2.1]octan-3-yl)-7-(4-methylthiazol-2-yl)benzo[d]oxazol-4-yl)oxy)-1,1-difluoro-2-methylpropan-2-ol]: the IC50 in the data set on PDE4 (setting [3]) is below 100 nM. Moreover, in data set [1], the “Residual ratio (% remaining for 30-minute reaction)” value is “B (B: 60% or more and less than 75%)”.

Values taken from patent US12239643B2, “Therapeutic agent for inflammatory diseases, autoimmune diseases, fibrotic diseases, and cancer diseases” (MEIJI SEIKA PHARMA CO., LTD., priority 2018, dated 2025).
